pIC50: −log10 of the molar value.
Experiments:
human neutrophils = assay: Human neutrophil migration assay (embelin-induced); format: cell-based; settings: neutrophils from human buffy coat, 30 min compound pre-incubation, migration towards embelin at EC80 for 1 h, ATPlite readout, read-out: human neutrophil migration inhibition (Neutrophils)
Procedure: 2. Cellular Assays 2.1. Human Neutrophil Migration Assay
The effect of agonists or antagonists for GPR84 can therefore be assayed in a neutrophil migration test. In the neutrophil migration assay, neutrophils, freshly isolated from buffy coats from human volunteers, are treated with a compound for 30 minutes. Subsequently, the neutrophils are transferred to the upper wells of a Corning HTS transwell 96 permeable support system, of which the lower wells are filled with a embelin solution at EC80 (concentration which gives 80% of the activity of GPR84). After 1 h of incubation, migration of the neutrophils towards embelin in the lower compartment can be quantified by measuring the ATP-content of the lower wells using the ATPlite luminescence ATP detection assay system (Perkin Elmer, Cat. No.: 436110).
A human buffy coat is diluted with an equal volume of ice cold DPBS. 20 mL of the diluted buffy coat is gently mixed with 4 mL of ACD buffer (140 mM citric acid, 200 mM sodium citrate and 220 mM dextrose). Then, 12 mL of the 6% dextran/0.9% NaCl solution (15 g dextran T2000 and 2.25 g NaCl dissolved in 250 mL H2O) is added to the mixture and the samples are inverted gently up to 20 times. The total volume was transferred to a new recipient and incubated at room temperature for 1 h for complete separation of the two phases to occur. The yellowish supernatant is then transferred to a clean centrifugation tube and centrifuged for 12 minutes at 1300 rpm and 4° C. After centrifugation, the supernatant is discarded and the remaining cell pellet is rapidly resuspended in 12 mL of ice-cold H2O for red blood cell lysis to occur. After 20 seconds, 4 mL of ice-cold 0.6 M KCl is added. Samples are mixed carefully and centrifuged for 6 minutes at 1300 rpm, 4° C. The supernatant is discarded and the red blood cell lysis procedure is repeated one more time. Subsequently, the cell pellet is resuspended in 4 mL of DPBS and layered over 5 mL of Lymphoprep (Nycomed Pharma, Cat. No.: 1114545) in a 15 mL centrifuge tube. After centrifugation for 12 min at 1300 rpm, 4° C., the supernatant is removed and the cell pellet, containing the neutrophils, is resuspended in 25 mL chemotaxis buffer (RPMI 1640 medium, supplemented with 10 mM HEPES; freshly made for each experiment)
A cell suspension of 8.9×10^6 cells per milliliter is prepared. 20 μL of compound solution in chemotaxis buffer is added to 180 μL cell suspension. The mixture is incubated at 37° C. for 30 minutes with intermediate resuspension of the cells after 15 minutes. Following this, 70 μL cell suspension is transferred to the upper compartment of a Corning HTS transwell 96 permeable support system with 5.0 μm pore size polycarbonate membrane (Corning, Cat. No.: 3387). The receiver well of the transwell system is then filled with 200 μL chemotaxis buffer containing compound and chemotactic agent (embelin). After incubation at 37° C. in 5% CO2 for 1 h, the upper plate of the transwell system is removed and the cell suspension in the receiver plate is transferred to a 96-well V-bottom plate. 50 μL of DPBS is added to the receiver plate to prevent remaining cells from drying out. The V-bottom plate is centrifuged for 6 minutes at 1500 rpm. The supernatant is removed and the cells are resuspended in 50 μL DPBS. The cells are then transferred back to the receiver plate of the transwell system. After this, 100 μL ATPlite solution (Perkin Elmer, Cat. No: 436110) was added to the cells. The plate is incubated for 10 minutes in the dark, while shaking. […] of cell lysate is then transferred to a white 96-well plate and luminescence is measured. The detected luminescent signal is considered as linearely related to the number of cells having migrated from the upper well to the receiver well.

GPR84 = target: T1, GPR84 (Homo sapiens, UniProt Q9NQS5); assay: GTPγS binding assay (GPR84); format: biochemical; settings: membranes from stable cell line over expressing GPR84; 3,3′ di indolylmethane at EC80
T1 construct: expressed in transfected cells; membranes used
Procedure, shortened: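 Membranes (20 μg/well) from a stable GPR84-overexpressing line, pre-incubated with 0.1 μM GDP for 15 min at 4° C, mixed with 0.1 nM [35S]GTPγS and WGA SpA beads in 20 mM HEPES pH 7.4, 5 mM MgCl2, 250 mM NaCl, 0.05% BSA, 75 ug/mL saponin; 90 min at room temperature, then scintillation counting.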

T1 sequence (Q9NQS5 whole entry): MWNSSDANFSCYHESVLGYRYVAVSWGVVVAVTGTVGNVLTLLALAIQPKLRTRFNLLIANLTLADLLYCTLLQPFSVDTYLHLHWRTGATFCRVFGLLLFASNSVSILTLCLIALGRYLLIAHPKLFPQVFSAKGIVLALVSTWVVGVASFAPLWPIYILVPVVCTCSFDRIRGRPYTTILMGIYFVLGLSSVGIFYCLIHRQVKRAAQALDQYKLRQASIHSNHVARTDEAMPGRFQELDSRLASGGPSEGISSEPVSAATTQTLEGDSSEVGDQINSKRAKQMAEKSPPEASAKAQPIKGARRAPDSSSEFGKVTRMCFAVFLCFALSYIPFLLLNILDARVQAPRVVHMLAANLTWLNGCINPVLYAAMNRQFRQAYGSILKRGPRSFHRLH

Row | pIC50 (human neutrophils) | pIC50 (GPR84) | Structure (SMILES)
1 | 7.00 to 11.00 | 7.00 to 11.00 | O=c1nc(OCC2COCCO2)cc2n1CCc1cc(OCc3ccccn3)ccc1-2 (stereo not drawn) [Compound 9, 2-([1,4]dioxan-2-ylmethoxy)-9-(pyridin-2-ylmethoxy)-6,7-dihydro-pyrimido[6,1-a]isoquinolin-4-one]
2 | 6.30 to 7.00 | 6.30 to 7.00 | Cn1cncc1C#Cc1ccc2c(c1)CCn1c-2cc(OCC2COCCO2)nc1=O (stereo not drawn) [Compound 16, 2-([1,4]dioxan-2-ylmethoxy)-9-(3-methyl-3H-imidazol-4-ylethynyl)-6,7-dihydro-pyrimido[6,1-a]isoquinolin-4-one]
3 | 6.30 to 7.00 | 7.00 to 11.00 | O=c1nc(OCC2COCCO2)cc2n1CCc1cc(C#Cc3ccccn3)ccc1-2 (stereo not drawn) [Compound 36, 2-([1,4]dioxan-2-ylmethoxy)-9-pyridin-2-ylethynyl-6,7-dihydro-pyrimido[6,1-a]isoquinolin-4-one]
4 | 7.00 to 11.00 | 6.30 to 7.00 | O=c1nc(OCC2COCCO2)cc2n1CCc1cc(C#Cc3cccnc3)ccc1-2 (stereo not drawn) [Compound 41, 2-([1,4]dioxan-2-ylmethoxy)-9-pyridin-3-ylethynyl-6,7-dihydro-pyrimido[6,1-a]isoquinolin-4-one]
5 | 6.30 to 7.00 | 6.30 to 7.00 | CNC(=O)c1ccc(-c2ccc3c(c2)CCn2c-3cc(OCC3COCCO3)nc2=O)cc1 (stereo not drawn) [Compound 42, 4-[2-([1,4]dioxan-2-ylmethoxy)-4-oxo-6,7-dihydro-4H-pyrimido[6,1-a]isoquinolin-9-yl]-N-methyl-benzamide]
6 | 7.00 to 11.00 | 7.00 to 11.00 | CC(C)(C)C#Cc1ccc2c(c1)CCn1c-2cc(OCC2COCCO2)nc1=O (stereo not drawn) [Compound 52, 9-(3,3-Dimethyl-but-1-ynyl)-2-([1,4]dioxan-2-ylmethoxy)-6,7-dihydro-pyrimido[6,1-a]isoquinolin-4-one]
7 | 6.30 to 7.00 | 6.30 to 7.00 | COc1ncccc1-c1ccc2c(c1)CCn1c-2cc(OCC2COCCO2)nc1=O (stereo not drawn) [Compound 56, 2-([1,4]dioxan-2-ylmethoxy)-9-(2-methoxy-pyridin-3-yl)-6,7-dihydro-pyrimido[6,1-a]isoquinolin-4-one]
8 | 7.00 to 11.00 | 7.00 to 11.00 | CC(C)Oc1ccc(-c2ccc3c(c2)CCn2c-3cc(OCC3COCCO3)nc2=O)cn1 (stereo not drawn) [Compound 60, 2-([1,4]Dioxan-2-ylmethoxy)-9-(6-isopropoxy-pyridin-3-yl)-6,7-dihydro-pyrimido[6,1-a]isoquinolin-4-one]
9 | 7.00 to 11.00 | 7.00 to 11.00 | O=c1nc(OCC2COCCO2)cc2n1CCc1cc(-c3ccc(N4CCOCC4)nc3)ccc1-2 (stereo not drawn) [Compound 62, 2-([1,4]dioxan-2-ylmethoxy)-9-(6-morpholin-4-yl-pyridin-3-yl)-6,7-dihydro-pyrimido[6,1-a]isoquinolin-4-one]
10 | 7.00 to 11.00 | 6.30 to 7.00 | COc1cccc(-c2ccc3c(c2)CCn2c-3cc(OCC3COCCO3)nc2=O)c1OC (stereo not drawn) [Compound 63, 9-(2,3-dimethoxy-phenyl)-2-([1,4]dioxan-2-ylmethoxy)-6,7-dihydro-pyrimido[6,1-a]isoquinolin-4-one]
11 | 7.00 to 11.00 | 7.00 to 11.00 | O=c1nc(OCC2COCCO2)cc2n1CCc1cc(-c3ccc(N4CCCCC4)nc3)ccc1-2 (stereo not drawn) [Compound 68, 2-([1,4]dioxan-2-ylmethoxy)-9-(3,4,5,6-tetrahydro-2H-[1,2′]bipyridinyl-5′-yl)-6,7-dihydro-pyrimido[6,1-a]isoquinolin-4-one]
12 | 7.00 to 11.00 | 7.00 to 11.00 | CCOc1ncccc1-c1ccc2c(c1)CCn1c-2cc(OCC2COCCO2)nc1=O (stereo not drawn) [Compound 69, 2-([1,4]dioxan-2-ylmethoxy)-9-(2-ethoxy-pyridin-3-yl)-6,7-dihydro-pyrimido[6,1-a]isoquinolin-4-one]
13 | 7.00 to 11.00 | 7.00 to 11.00 | O=c1nc(OCC2COCCO2)cc2n1CCc1cc(OCc3noc(C4CC4)n3)ccc1-2 (stereo not drawn) [Compound 77, 9-(5-cyclopropyl-[1,2,4]oxadiazol-3-ylmethoxy)-2-([1,4]dioxan-2-ylmethoxy)-6,7-dihydro-pyrimido[6,1-a]isoquinolin-4-one]
14 | 7.00 to 11.00 | 7.00 to 11.00 | CC(C)c1nc(COc2ccc3c(c2)CCn2c-3cc(OCC3COCCO3)nc2=O)no1 (stereo not drawn) [Compound 80, 2-([1,4]dioxan-2-ylmethoxy)-9-(5-isopropyl-[1,2,4]oxadiazol-3-ylmethoxy)-6,7-dihydro-pyrimido[6,1-a]isoquinolin-4-one]
15 | 7.00 to 11.00 | 7.00 to 11.00 | CC(C)C#Cc1ccc2c(c1)CCn1c-2cc(OCC2COCCO2)nc1=O (stereo not drawn) [Compound 83, 2-([1,4]dioxan-2-ylmethoxy)-9-(3-methyl-but-1-ynyl)-6,7-dihydro-pyrimido[6,1-a]isoquinolin-4-one]
16 | 7.00 to 11.00 | 6.30 to 7.00 | CCC(O)C#Cc1ccc2c(c1)CCn1c-2cc(OCC2COCCO2)nc1=O (stereo not drawn) [Compound 89, 2-([1,4]dioxan-2-ylmethoxy)-9-(3-hydroxy-pent-1-ynyl)-6,7-dihydro-pyrimido[6,1-a]isoquinolin-4-one]
17 | 7.00 to 11.00 | 7.00 to 11.00 | CC(C)C(O)C#Cc1ccc2c(c1)CCn1c-2cc(OCC2COCCO2)nc1=O (stereo not drawn) [Compound 90, 2-([1,4]Dioxan-2-ylmethoxy)-9-(3-hydroxy-4-methyl-pent-1-ynyl)-6,7-dihydro-pyrimido[6,1-a]isoquinolin-4-one]
18 | 7.00 to 11.00 | 7.00 to 11.00 | CCCC(O)C#Cc1ccc2c(c1)CCn1c-2cc(OCC2COCCO2)nc1=O (stereo not drawn) [Compound 98, 2-([1,4]dioxan-2-ylmethoxy)-9-(3-hydroxy-hex-1-ynyl)-6,7-dihydro-pyrimido[6,1-a]isoquinolin-4-one]
19 | 7.00 to 11.00 | 7.00 to 11.00 | O=c1nc(OCC2COCCO2)cc2n1CCc1cc(C#CCNc3ccccc3)ccc1-2 (stereo not drawn) [Compound 107, 2-([1,4]dioxan-2-ylmethoxy)-9-(3-phenylamino-prop-1-ynyl)-6,7-dihydro-pyrimido[6,1-a]isoquinolin-4-one]
20 | 7.00 to 11.00 | 7.00 to 11.00 | CC(C)C#Cc1ccc2c(c1)CCn1c-2cc(OC[C@@H]2COCCO2)nc1=O [Compound 112, 2-((S)-1-[1,4]dioxan-2-ylmethoxy)-9-(3-methyl-but-1-ynyl)-6,7-dihydro-pyrimido[6,1-a]isoquinolin-4-one]
21 | 7.00 to 11.00 | 7.00 to 11.00 | O=c1nc(OC[C@H]2COCCO2)cc2n1CCc1cc(CCC3CC3)ccc1-2 [Compound 114, 9-(2-cyclopropyl-ethyl)-2-((R)-1-[1,4]dioxan-2-ylmethoxy)-6,7-dihydro-pyrimido[6,1-a]isoquinolin-4-one]
22 | 7.00 to 11.00 | 6.30 to 7.00 | O=c1nc(OCC2COCCO2)cc2n1CCc1cc(CCC(O)c3cccnc3)ccc1-2 (stereo not drawn) [Compound 116, 2-([1,4]dioxan-2-ylmethoxy)-9-(3-hydroxy-3-pyridin-3-yl-propyl)-6,7-dihydro-pyrimido[6,1-a]isoquinolin-4-one]
23 | 6.30 to 7.00 | 7.00 to 11.00 | CCCCCc1ccc2c(c1)CCn1c-2cc(OC[C@H]2COCCO2)nc1=O [Compound 121, 2-((R)-1-[1,4]dioxan-2-ylmethoxy)-9-pentyl-6,7-dihydro-pyrimido[6,1-a]isoquinolin-4-one]

Row | Structure (SMILES) | pIC50 (human neutrophils) | pIC50 (GPR84)
24 | CC(C)(C)OCc1ccc2c(c1)CCn1c-2cc(OCC2COCCO2)nc1=O (stereo not drawn) [Compound 72, 9-tert-butoxymethyl-2-([1,4]dioxan-2-ylmethoxy)-6,7-dihydro-pyrimido[6,1-a]isoquinolin-4-one] | 7.00 to 11.00 | 7.00 to 11.00

Reference: patent US10047083B2, “Dihydropyrimidinoisoquinolinones and pharmaceutical compositions thereof for the treatment of inflammatory disorders” (GALAPAGOS NV, priority 2011, dated 2018)
